Each block holds one molecule with its values, some of them ahead of it. Ends that are not written are not given here.
Key:
[1] = system: Bb-6 and Bd-l.4 T cell hybridomas; assay: Stimulation of T cell hybridomas in the presence of live APC; assay type: cell-based, mouse; conditions: Fig. 2; for stimulation of T cells in the presence of live APC (in words): live TH2.2, serum-containing media, 24 h, HT-2 lymphokine assay
[2] = system: Bb-6 and Bd-l.4 T cell hybridomas; assay: Stimulation of T cell hybridomas by fixed APC; assay type: cell-based, mouse; conditions: for requirement of DTT for presentation by fixed APC (in words): Fig. 4, fixed TH2.2, 18 h at 37°C, 0.15 M citrate/phosphate, pH 5 (A(1-14) forms) or pH 6 (sulfonated A chain), ± 2 mM DTT
[3] = system: Bd-l.4 T cell hybridoma (I-Ad-restricted); conditions: cited from earlier work
[4] = system: Bb-6 T cell hybridoma (I-Ab-restricted); conditions: cited from earlier work
[5] = system: insulin-immune or A(1-14)-immune H-2d and H-2b lymph node lymphocytes; assay: Lymph node proliferation assay; assay type: cell-based, mouse; conditions: Fig. 6a,b; INS-primed BALB/c or C57BL/10 (H-2d, H-2b); 4 d, [3H]thymidine
I-Ed [6] = molecular target: T1, I-Ed (Mus musculus, UniProt P01904+P01915); assay: Binding of alkylated HEL; conditions: data not shown
T1 sequence (P01904 whole entry, looked up): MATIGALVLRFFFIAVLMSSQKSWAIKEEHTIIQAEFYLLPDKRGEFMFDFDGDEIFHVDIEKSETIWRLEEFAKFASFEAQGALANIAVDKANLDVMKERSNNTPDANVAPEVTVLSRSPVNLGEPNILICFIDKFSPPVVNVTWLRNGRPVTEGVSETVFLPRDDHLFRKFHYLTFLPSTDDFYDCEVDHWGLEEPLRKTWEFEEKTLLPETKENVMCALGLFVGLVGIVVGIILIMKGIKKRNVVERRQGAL
T1 sequence (P01915 whole entry, looked up): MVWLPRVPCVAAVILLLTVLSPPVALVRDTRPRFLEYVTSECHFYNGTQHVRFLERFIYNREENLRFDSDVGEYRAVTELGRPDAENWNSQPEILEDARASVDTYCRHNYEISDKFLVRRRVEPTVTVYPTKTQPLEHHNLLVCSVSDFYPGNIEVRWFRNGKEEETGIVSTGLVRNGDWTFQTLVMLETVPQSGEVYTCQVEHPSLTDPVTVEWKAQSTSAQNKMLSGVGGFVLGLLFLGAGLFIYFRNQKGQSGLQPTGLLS

I-Ed [7] = molecular target: T1, I-Ed; assay: Inhibition of biotin-HEL; assay type: binding; conditions: Fig. 8b; 2 µM biotin-HEL(104-120)
I-Ad [8] = molecular target: T2, I-Ad (Mus musculus, UniProt P01921+P04228); assay: Binding of biotinylated insulin to purified I-Ad; conditions: preliminary, data not shown; absence of reduction
T2 sequence (P01921 whole entry, looked up): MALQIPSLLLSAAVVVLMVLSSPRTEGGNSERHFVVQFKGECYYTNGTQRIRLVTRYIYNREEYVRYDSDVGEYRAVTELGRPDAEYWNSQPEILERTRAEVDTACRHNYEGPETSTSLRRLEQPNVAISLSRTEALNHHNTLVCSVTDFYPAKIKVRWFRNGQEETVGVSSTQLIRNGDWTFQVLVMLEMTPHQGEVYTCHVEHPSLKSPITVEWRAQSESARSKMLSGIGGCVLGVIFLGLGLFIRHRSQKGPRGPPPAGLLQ
T2 sequence (P04228 whole entry, looked up): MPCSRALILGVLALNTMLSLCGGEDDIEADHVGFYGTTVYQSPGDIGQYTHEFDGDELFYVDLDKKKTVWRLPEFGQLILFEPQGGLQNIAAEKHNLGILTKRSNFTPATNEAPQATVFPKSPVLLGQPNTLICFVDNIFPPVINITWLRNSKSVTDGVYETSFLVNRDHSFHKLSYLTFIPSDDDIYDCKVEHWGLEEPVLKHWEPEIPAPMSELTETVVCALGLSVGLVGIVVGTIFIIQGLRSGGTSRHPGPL

I-Ad [9] = molecular target: I-Ad (Mus musculus, UniProt P01921+P04228); assay: Inhibition of biotin-Myo; assay type: binding; conditions: Fig. 7a; 1 mM DTT, 48 h
apamin-specific T cells = conditions: live APC; reduced and alkylated apamin; cited from earlier work
[10] = system: I-Ab-restricted beef insulin-reactive T cell clones; conditions: large panel of I-Ab-restricted beef insulin-reactive T cell clones; cited from earlier work

Molecule: oxlNS: Performic acid-oxidized beef insulin
- stimulation of T cells in the presence of live APC (in words) [1]: do not stimulate these T cells

Molecule: INS: Beef insulin purchased from Elanco Products Co.
- molar excess of DTT to insulin disulfides at optimal response ([2]; Fig. 1b, fixed TH2.2, 33 µM INS): ~10 fold
- DTT concentration for optimal T cell responses ([2]; Fig. 1b, fixed TH2.2, 18 h at 37°C in PBS, 33 µM INS): 0.1 to 1 mM
- activation of T cells by fixed APC exposed to antigen and DTT (in words) ([2]; fixed TH2.2, overnight, 2 mM DTT): able to activate Bb-6 and Bd-l.4 T cells

Molecule: pork insulin: pork insulin
- recognition by Bd-l.4 (in words) [3]: partiallycrossreactivewith pork insulin
- recognition by Bb-6 (in words) [4]: but not pork, insulin

Molecule: FVNQHLCGSHLVEALYLVCG- ERGFFYTPKA [B(1-30)]
- proliferation of beef insulin-immune lymphocytes (in words) [5]: but not to B chain

Molecule: GMNAWVAWRNRC- KGTDVY [HEL(104-120)]
- effect of sulfhydryl alkylation on binding to I-Ed (in words) (I-Ed [6]): does not affect its capacity to bind purified FEd

Molecule: GIVEQCCASVCSLY [A(1-14)]
- potency relative to insulin/DTT with fixed APC (in words) ([2]; Fig. 3, fixed TH2.2): equivalent
- inhibition of biotin-HEL(104-120) binding to I-Ed (in words) (I-Ed [7]): only at relatively high
- stimulation of T cells in the presence of live APC (in words) [1]: essentially inactive

Molecule: purified A chain from oxlNS: purified A chain from oxINS insulin
- stimulation of T cells in the presence of live APC (in words) [1]: do not stimulate these T cells

- binding of biotinylated insulin to I-Ad without reduction (in words) (I-Ad [8]): can bind to I-Ad
Molecule: biotinylated insulin: biotinylated insulin

- inhibition of peptide binding by DTT alone (in words) (I-Ad [9]): did not inhibit peptide binding
Molecule: O[C@@H](CS)[C@@H](O)CS (racemic) [DTT, dithiothreitol]

Molecule: apamin
- T cells failing to recognize apamin after reduction and alkylation (apamin-specific T cells): 3/16

Molecule: air oxidized A(1-14): air-oxidized form of A(1-14) (GIVEQCCASVCSLY; disulfide (positions not given here); also: air-oxidized, interchain disulfides; UniProt P01317 85-98, looked up, fragment)
- requirement of DTT for presentation by fixed APC (in words) [2]: disulfide reduction was required for presentation

Molecule: rcamlNS: reduced and carboxyamidomethylated beef insulin
- stimulation of T cells in the presence of live APC (in words) [1]: do not stimulate these T cells

Molecule: Sulfonated A chain: sulfonated A chain of beef insulin purified from sulfonated insulin by reverse-phase HPLC
- requirement of DTT for presentation by fixed APC (in words) [2]: in the presence, but not the absence, of DTT were capable of stimulating Bd-l.4 and Bb-6
- fold lower concentration of intact insulin giving comparable stimulation ([1]; live APC, both I-Ab- and I-Ad-restricted T cells): 3-10 fold
- fraction of T cell clones responding to sulfonated A chain but not performic acid-oxidized insulin [10]: > 90%
